Test: xn = mol fraction of the nth substance listed
Settings: for electrical conductivity: frequency 0.001 MHz

CCCCCCCCCCCCCCn1cc[n+](C)c1.[Br-] + CC[N+](CC)(CC)CC.[Br-] + O
electrical conductivity [S/m], 101 kPa
Settings | 298.15 K | 308.15 K | 318.15 K
x1 = 4.74e-06, x2 = 0 | 0.00249 | 0.00401 | 0.00409
x1 = 4.74e-06, x2 = 1.802e-05 | 0.0133 | 0.0165 | 0.0198
x1 = 4.74e-06, x2 = 3.604e-05 | 0.0213 | 0.0264 | 0.0318
x1 = 4.74e-06, x2 = 9.009e-05 | 0.0427 | 0.053 | 0.063
x1 = 9.35e-06, x2 = 0 | 0.00459 | 0.00671 | 0.00708
x1 = 9.35e-06, x2 = 1.802e-05 | 0.0152 | 0.0187 | 0.0223
x1 = 9.36e-06, x2 = 3.604e-05 | 0.023 | 0.0283 | 0.0345
x1 = 9.36e-06, x2 = 9.009e-05 | 0.0444 | 0.0542 | 0.0648
x1 = 1.386e-05, x2 = 0 | 0.0065 | 0.0093 | 0.0101
x1 = 1.386e-05, x2 = 1.802e-05 | 0.017 | 0.0209 | 0.025
x1 = 1.386e-05, x2 = 3.604e-05 | 0.0249 | 0.0306 | 0.0365
x1 = 1.387e-05, x2 = 9.009e-05 | 0.0459 | 0.056 | 0.0665
x1 = 1.825e-05, x2 = 0 | 0.00834 | 0.011 | 0.0127
x1 = 1.826e-05, x2 = 1.802e-05 | 0.0185 | 0.0231 | 0.0271
x1 = 1.826e-05, x2 = 3.604e-05 | 0.0264 | 0.0325 | 0.0389
x1 = 1.827e-05, x2 = 9.009e-05 | 0.0472 | 0.058 | 0.0681
x1 = 2.252e-05, x2 = 0 | 0.0101 | 0.0135 | 0.0154
x1 = 2.253e-05, x2 = 1.802e-05 | 0.0201 | 0.0251 | 0.0294
x1 = 2.253e-05, x2 = 3.604e-05 | 0.0281 | 0.0343 | 0.0416
x1 = 2.255e-05, x2 = 9.009e-05 | 0.0479 | 0.0594 | 0.0705
x1 = 2.669e-05, x2 = 0 | 0.0119 | 0.0154 | 0.0182
x1 = 2.669e-05, x2 = 1.802e-05 | 0.0216 | 0.0268 | 0.0318
x1 = 2.67e-05, x2 = 3.604e-05 | 0.0295 | 0.0364 | 0.0432
x1 = 2.671e-05, x2 = 9.009e-05 | 0.049 | 0.0611 | 0.0723
x1 = 3.076e-05, x2 = 0 | 0.0136 | 0.0173 | 0.0206
x1 = 3.077e-05, x2 = 1.802e-05 | 0.0232 | 0.0286 | 0.0341
x1 = 3.077e-05, x2 = 3.604e-05 | 0.0307 | 0.0381 | 0.0451
x1 = 3.079e-05, x2 = 9.009e-05 | 0.0493 | 0.0618 | 0.0738
x1 = 3.474e-05, x2 = 0 | 0.0152 | 0.0199 | 0.0232
x1 = 3.475e-05, x2 = 1.802e-05 | 0.0248 | 0.0305 | 0.0362
x1 = 3.475e-05, x2 = 3.604e-05 | 0.0315 | 0.0399 | 0.0472
x1 = 3.477e-05, x2 = 9.009e-05 | 0.0495 | 0.0619 | 0.0748
x1 = 3.862e-05, x2 = 0 | 0.0167 | 0.0218 | 0.0253
x1 = 3.862e-05, x2 = 1.802e-05 | 0.0261 | 0.0324 | 0.0384
x1 = 3.863e-05, x2 = 3.604e-05 | 0.0318 | 0.0405 | 0.0492
x1 = 3.865e-05, x2 = 9.009e-05 | 0.0494 | 0.0621 | 0.0752
x1 = 4.24e-05, x2 = 0 | 0.0183 | 0.0238 | 0.028
x1 = 4.241e-05, x2 = 1.802e-05 | 0.0265 | 0.0333 | 0.0404
x1 = 4.242e-05, x2 = 3.604e-05 | 0.0322 | 0.0409 | 0.0511
x1 = 4.244e-05, x2 = 9.009e-05 | 0.0497 | 0.0622 | 0.0753
x1 = 4.613e-05, x2 = 0 | 0.0192 | 0.0252 | 0.0303
x1 = 4.614e-05, x2 = 1.802e-05 | 0.0271 | 0.034 | 0.042
x1 = 4.615e-05, x2 = 3.604e-05 | 0.0326 | 0.0414 | 0.0518
x1 = 4.617e-05, x2 = 9.009e-05 | 0.0499 | 0.0623 | 0.0756
x1 = 4.973e-05, x2 = 0 | 0.0199 | 0.0265 | 0.0322
x1 = 4.974e-05, x2 = 1.802e-05 | 0.0274 | 0.0345 | 0.0432
x1 = 4.975e-05, x2 = 3.604e-05 | 0.0329 | 0.0419 | 0.0525
x1 = 4.978e-05, x2 = 9.009e-05 | 0.05 | 0.0627 | 0.0758
x1 = 5.334e-05, x2 = 0 | 0.0204 | 0.0273 | 0.0335
x1 = 5.335e-05, x2 = 1.802e-05 | 0.0278 | 0.035 | 0.0441
x1 = 5.336e-05, x2 = 3.604e-05 | 0.0333 | 0.0423 | 0.0531
x1 = 5.339e-05, x2 = 9.009e-05 | 0.0501 | 0.063 | 0.0761
x1 = 5.676e-05, x2 = 0 | 0.0209 | 0.0282 | 0.0345
x1 = 5.677e-05, x2 = 1.802e-05 | 0.0283 | 0.0354 | 0.0449
x1 = 5.678e-05, x2 = 3.604e-05 | 0.0336 | 0.0428 | 0.0534
x1 = 5.681e-05, x2 = 9.009e-05 | 0.0503 | 0.063 | 0.0763
x1 = 6e-05, x2 = 0 | 0.0213 | 0.0288 | 0.0356
x1 = 6.001e-05, x2 = 1.802e-05 | 0.0286 | 0.0359 | 0.0455
x1 = 6.003e-05, x2 = 3.604e-05 | 0.0338 | 0.0432 | 0.0541
x1 = 6.006e-05, x2 = 9.009e-05 | 0.0505 | 0.0633 | 0.0768
x1 = 6.343e-05, x2 = 0 | 0.0217 | 0.0294 | 0.0365
x1 = 6.344e-05, x2 = 1.802e-05 | 0.0289 | 0.0364 | 0.0461
x1 = 6.345e-05, x2 = 3.604e-05 | 0.0341 | 0.0435 | 0.0542
x1 = 6.349e-05, x2 = 9.009e-05 | 0.0507 | 0.0636 | 0.0773
x1 = 6.667e-05, x2 = 0 | 0.0221 | 0.03 | 0.0372
x1 = 6.668e-05, x2 = 1.802e-05 | 0.0293 | 0.0368 | 0.0467
x1 = 6.67e-05, x2 = 3.604e-05 | 0.0344 | 0.0439 | 0.0548
x1 = 6.673e-05, x2 = 9.009e-05 | 0.0508 | 0.0637 | 0.0777
x1 = 6.973e-05, x2 = 0 | 0.0225 | 0.0305 | 0.0377
x1 = 6.975e-05, x2 = 1.802e-05 | 0.0296 | 0.0373 | 0.0473
x1 = 6.976e-05, x2 = 3.604e-05 | 0.0346 | 0.0442 | 0.0552
x1 = 6.98e-05, x2 = 9.009e-05 | 0.0511 | 0.0641 | 0.0781
x1 = 7.28e-05, x2 = 0 | 0.0229 | 0.0311 | 0.0383
x1 = 7.281e-05, x2 = 1.802e-05 | 0.0299 | 0.0375 | 0.0478
x1 = 7.282e-05, x2 = 3.604e-05 | 0.0349 | 0.0445 | 0.0555
x1 = 7.287e-05, x2 = 9.009e-05 | 0.0512 | 0.0646 | 0.0785
x1 = 7.586e-05, x2 = 0 | 0.0233 | 0.0316 | 0.0389
x1 = 7.587e-05, x2 = 1.802e-05 | 0.0302 | 0.0382 | 0.0482
x1 = 7.589e-05, x2 = 3.604e-05 | 0.0351 | 0.0453 | 0.0561
x1 = 7.593e-05, x2 = 9.009e-05 | 0.0516 | 0.065 | 0.0786
x1 = 7.892e-05, x2 = 0 | 0.0236 | 0.0321 | 0.0396
x1 = 7.894e-05, x2 = 1.802e-05 | 0.0304 | 0.0389 | 0.0485
x1 = 7.895e-05, x2 = 3.604e-05 | 0.0353 | 0.0455 | 0.0568
x1 = 7.9e-05, x2 = 9.008e-05 | 0.0519 | 0.0654 | 0.0789
x1 = 8.18e-05, x2 = 0 | 0.024 | 0.0326 | 0.0408
x1 = 8.182e-05, x2 = 1.802e-05 | 0.0307 | 0.0391 | 0.0492
x1 = 8.184e-05, x2 = 3.604e-05 | 0.0356 | 0.0458 | 0.0571
x1 = 8.188e-05, x2 = 9.008e-05 | 0.0522 | 0.0658 | 0.0792
x1 = 8.451e-05, x2 = 0 | 0.0243 | 0.0329 | 0.0414
x1 = 8.452e-05, x2 = 1.802e-05 | 0.0308 | 0.0395 | 0.0496
x1 = 8.454e-05, x2 = 3.604e-05 | 0.0358 | 0.0462 | 0.0573
x1 = 8.459e-05, x2 = 9.008e-05 | 0.0524 | 0.066 | 0.0796
x1 = 8.739e-05, x2 = 0 | 0.0246 | 0.0333 | 0.0418
x1 = 8.741e-05, x2 = 1.802e-05 | 0.0312 | 0.0399 | 0.0502
x1 = 8.742e-05, x2 = 3.604e-05 | 0.036 | 0.0464 | 0.058
x1 = 8.747e-05, x2 = 9.008e-05 | 0.0526 | 0.0665 | 0.0801

CCOP(=O)([O-])OCC.CC[n+]1ccn(C)c1 + CC(C)O + O
100 kPa
Settings | viscosity [mPa·s]
298.15 K, x2 = 0.299, x3 = 0.3 | 79
313.15 K, x2 = 0.199, x3 = 0.2008 | 90
323.15 K, x2 = 0.099, x3 = 0.0998 | 94
323.15 K, x2 = 0.15, x3 = 0.1498 | 76

CCCC[n+]1ccn(C)c1.COP(=O)([O-])OC + CCCCC(=O)[O-].CC[NH+](CC)CCO
101 kPa, x2 = 0
Settings | viscosity [mPa·s]
303.15 K | 426
323.15 K | 129.4
328.15 K | 100.9
348.15 K | 43.18
358.15 K | 30.38
368.15 K | 22.22
373.15 K | 19.25

Source: the CheMixHub ionic liquid set
